Measurements from ChEMBL document CHEMBL1147197, “Studies on logP, retention time and QSAR of 2-substituted phenylnitronyl nitroxides as free radical scavengers” (Eur J Med Chem, 2007).

Assays:
[1] = Retention time, log K of the compound; assay type: ADME
[2] = system: PC-12; test: Hydrogen peroxide radical scavenging activity in PC12 cell by survival assay; assay type: functional, cell-based, Homo sapiens; conditions: Rattus norvegicus
[3] = system: PC-12; test: Hydroxyl radical scavenging activity in PC12 cell by survival assay; assay type: functional, cell-based, Homo sapiens; conditions: Rattus norvegicus
[4] = Partition coefficient, log P of the compound; assay type: physicochemical; conditions: octanol/water
[5] = system: PC-12; test: Nitric oxide radical scavenging activity in PC12 cells by survival assay; assay type: functional, cell-based, Homo sapiens; conditions: Rattus norvegicus

Row | Structure (SMILES) | log K [1] | EC50 ([2]; read-out: EC50) | EC50 ([2]; read-out: Log EC50 (converted)) | EC50 ([3]; read-out: EC50) | EC50 ([3]; read-out: Log EC50 (converted)) | logP [4] | EC50 ([5]; read-out: EC50) | EC50 ([5]; read-out: Log EC50 (converted))
1 | CN(C)c1ccc(C2=[N+]([O-])C(C)(C)C(C)(C)N2[O])cc1 | 1.328 | 29 µM | 28.8 µM | 31.1 µM | 30.9 µM | 2.02 | 9.12 µM | 9.12 µM
2 | CC1(C)N([O])C(c2ccc(Cl)cc2)=[N+]([O-])C1(C)C | 1.6 | 58.9 µM | 58.9 µM | 74.6 µM | 74.1 µM | 2.33 | 63.1 µM | 63.1 µM
3 | CC1(C)N([O])C(c2ccc(Cl)cc2Cl)=[N+]([O-])C1(C)C | 1.347 | 65 µM | 64.6 µM | 78.1 µM | 77.6 µM | 1.93 | 42.8 µM | 42.7 µM
4 | CC1(C)N([O])C(c2ccccc2[N+](=O)[O-])=[N+]([O-])C1(C)C | 0.598 | 60.7 µM | 60.3 µM | 74.6 µM | 74.1 µM | 0.909 | 47.9 µM | 47.9 µM
5 | CC1(C)N([O])C(c2ccc(OCC(=O)O)cc2)=[N+]([O-])C1(C)C | -0.372 | 74.6 µM | 74.1 µM | 101 µM | 100 µM | -0.518 | 91.2 µM | 91.2 µM
6 | CC1(C)N([O])C(c2cccnc2)=[N+]([O-])C1(C)C | 0.337 |  |  |  |  | 0.512 |  | 
7 | Cc1ccc(C2=[N+]([O-])C(C)(C)C(C)(C)N2[O])cc1 | 1.309 | 38.3 µM | 38 µM | 65 µM | 64.6 µM | 1.9 | 33.1 µM | 33.1 µM
8 | COc1ccc(C2=[N+]([O-])C(C)(C)C(C)(C)N2[O])cc1 | 1.101 | 42.9 µM | 42.7 µM | 59.3 µM | 58.9 µM | 1.62 | 30.9 µM | 30.9 µM
9 | COc1ccc(C2=[N+]([O-])C(C)(C)C(C)(C)N2[O])c(OC)c1 | 0.62 | 25.3 µM | 25.1 µM | 27.7 µM | 27.5 µM | 0.77 | 9.33 µM | 9.33 µM
10 | CC1(C)N([O])C(c2ccccc2F)=[N+]([O-])C1(C)C | 0.577 | 76.4 µM | 75.9 µM | 85.7 µM | 85.1 µM | 0.822 | 44.7 µM | 44.7 µM
11 | COc1ccc(C2=[N+]([O-])C(C)(C)C(C)(C)N2[O])cc1O | 0.534 | 40.1 µM | 39.8 µM | 54.1 µM | 53.7 µM | 0.918 | 27.5 µM | 27.5 µM
12 | CC1(C)N([O])C(c2ccccc2O)=[N+]([O-])C1(C)C | 0.729 | 52.8 µM | 52.5 µM | 55.3 µM | 55 µM | 1.17 | 44.7 µM | 44.7 µM
13 | CC1(C)N([O])C(c2ccc(O)cc2)=[N+]([O-])C1(C)C | 0.483 | 48.2 µM | 47.9 µM | 56 µM | 56.2 µM | 0.619 | 39.8 µM | 39.8 µM
14 | COc1cc(C2=[N+]([O-])C(C)(C)C(C)(C)N2[O])ccc1O | 0.558 | 32.6 µM | 32.4 µM | 42.9 µM | 42.7 µM | 1.14 | 25.7 µM | 25.7 µM
15 | CC1(C)N([O])C(c2ccc([N+](=O)[O-])cc2)=[N+]([O-])C1(C)C | 1.245 | 108 µM | 107 µM | 167 µM | 166 µM | 1.68 | 115 µM | 115 µM
16 | COc1ccc(C2=[N+]([O-])C(C)(C)C(C)(C)N2[O])cc1OC | 0.905 | 30.4 µM | 30.2 µM | 29.7 µM | 29.5 µM | 1.15 | 8.32 µM | 8.32 µM
17 | CC1(C)N([O])C(c2ccc3c(c2)OCO3)=[N+]([O-])C1(C)C | 1.039 | 29.7 µM | 29.5 µM | 47.1 µM | 46.8 µM | 1.51 | 19.5 µM | 19.5 µM
18 | CC1(C)N([O])C(c2ccc(Br)cc2)=[N+]([O-])C1(C)C | 1.713 | 55.3 µM | 55 µM | 60.7 µM | 60.3 µM | 2.46 | 46.8 µM | 46.8 µM
19 | CC1(C)N([O])C(c2cccc([N+](=O)[O-])c2)=[N+]([O-])C1(C)C | 1.157 | 62.1 µM | 61.7 µM | 63.5 µM | 63.1 µM | 1.64 | 87.1 µM | 87.1 µM
20 | CC1(C)N([O])C(c2cccc(O)c2)=[N+]([O-])C1(C)C | 0.546 | 57.9 µM | 57.5 µM | 69.6 µM | 69.2 µM | 1.14 | 61.7 µM | 61.7 µM
21 | CC1(C)N([O])C(c2ccco2)=[N+]([O-])C1(C)C | 0.405 |  |  |  |  | 0.615 |  | 
22 | CC1(C)N([O])C(c2ccccc2)=[N+]([O-])C1(C)C | 0.918 | 51.6 µM | 51.3 µM | 66.5 µM | 66.1 µM | 1.36 | 67.6 µM | 67.6 µM
